Laboratory results taken from patent publication US20050014215A1, “Method and medium for the detecting/identifying microorganisms with esterase and/or r osidase and/or peptidase and/or sulfatase and/or phosphatase activity” (priority 2000, published 2005).

Key:
[1] = system: Listeria innocua 36; assay: Colony coloration on fresh and stored media, Example 10 (6-chloro-3-indolyl-β-N-acetylglucosaminide, Columbia); format: cell-based; parameters: key to intensity of coloration (arbitrary scale): 0: no activity; 0.1: trace of coloration; 0.5: very pale coloration; 1: distinct coloration of low intensity; 2: clear coloration of medium intensity; 3: intense coloration; 4: very intense coloration; —: absence of coloration or intensity; key to color: M: magenta; —: colorless
Method: (§1) Two stock solutions of substrate were prepared, one having a concentration of 50 g/l in DMF and the other having a concentration of 50 g/l in a mixture of DMF (40%) and Tween® 20 (60%). A volume corresponding to a final concentration of 175 mg/l of substrate was then added to a supercooled gelled medium, namely Columbia medium not supplemented with blood. […] After three weeks, six weeks, nine weeks and twelve weeks, two media like those described above were prepared for immediate use.
(§2) Microorganisms originating from the Applicant's collection were inoculated from a 0.5 McFarland suspension, by isolation in three quadrants, onto the two media prepared for immediate use and the two media stored at +4° C. The dishes were incubated at 37° C. for 48 hours. The colonies formed were examined visually after 24 and 48 hours of incubation. The coloration of these colonies and the intensity of this coloration were noted.

[2] = system: Listeria ivanovii 18; assay: as above; format: cell-based; parameters: key to intensity of coloration (arbitrary scale): 0: no activity; 0.1: trace of coloration; 0.5: very pale coloration; 1: distinct coloration of low intensity; 2: clear coloration of medium intensity; 3: intense coloration; 4: very intense coloration; —: absence of coloration or intensity; key to color: M: magenta; —: colorless
Method: as §1, §2

[3] = system: Listeria monocytogenes 23; assay: as above; format: cell-based; parameters: key to intensity of coloration (arbitrary scale): 0: no activity; 0.1: trace of coloration; 0.5: very pale coloration; 1: distinct coloration of low intensity; 2: clear coloration of medium intensity; 3: intense coloration; 4: very intense coloration; —: absence of coloration or intensity; key to color: M: magenta; —: colorless
Method: as §1, §2

[4] = system: Pseudomonas aeruginosa 165; assay: as above; format: cell-based; parameters: key: M: magenta; —: colorless
Method: as §1, §2

[5] = system: Staphylococcus aureus 20; assay: as above; format: cell-based; parameters: key: M: magenta; —: colorless
Method: as §1, §2

[6] = Appearance of stock solutions of 2-alizarin octanoate in solvent/Tween 20 (Example 7); format: physicochemical; details: 60% Tween 20
Method: The substrate tested is 1,2-dihydroxyanthraquinone octanoate (2-alizarin octanoate). Different stock solutions of substrate are prepared with DMF, DMSO, methanol or methoxyethanol as solvent and in the presence of Tween® 20 in all cases.

[7] = IT 24 h, fresh medium, DMF Tween 20, 6-week comparison
[8] = IT 24 h, fresh medium, DMF Tween 20, 9-week comparison
[9] = IT 24 h, fresh medium, DMF Tween 20, 12-week comparison
[10] = IT 24 h, fresh medium, DMF, 6-week comparison
[11] = IT 24 h, fresh medium, DMF, 9-week comparison
[12] = IT 24 h, fresh medium, DMF, 12-week comparison
[13] = IT 24 h, medium stored for 6 weeks at +4° C., DMF
[14] = IT 24 h, medium stored for 6 weeks at +4° C., DMF Tween 20
[15] = IT 24 h, medium stored for 9 weeks at +4° C., DMF
[16] = IT 24 h, medium stored for 9 weeks at +4° C., DMF Tween 20
[17] = IT 24 h, medium stored for 12 weeks at +4° C., DMF
[18] = IT 24 h, medium stored for 12 weeks at +4° C., DMF Tween 20
[19] = IT 48 h, fresh medium, DMF Tween 20, 6-week comparison
[20] = IT 48 h, fresh medium, DMF Tween 20, 9-week comparison
[21] = IT 48 h, fresh medium, DMF Tween 20, 12-week comparison
[22] = IT 48 h, fresh medium, DMF, 6-week comparison
[23] = IT 48 h, fresh medium, DMF, 9-week comparison
[24] = IT 48 h, fresh medium, DMF, 12-week comparison
[25] = IT 48 h, medium stored for 6 weeks at +4° C., DMF
[26] = IT 48 h, medium stored for 6 weeks at +4° C., DMF Tween 20
[27] = IT 48 h, medium stored for 9 weeks at +4° C., DMF
[28] = IT 48 h, medium stored for 9 weeks at +4° C., DMF Tween 20
[29] = IT 48 h, medium stored for 12 weeks at +4° C., DMF
[30] = IT 48 h, medium stored for 12 weeks at +4° C., DMF Tween 20

For `CC(=O)N[C@H]1[C@H](Oc2c[nH]c3cc(Cl)ccc23)O[C@H](CO)[C@@H](O)[C@@H]1O`, the color [1, 7] was “M”, the “intensity of coloration (arbitrary scale)” value (“intensity of coloration” below) [1, 7] was 2 and the color [1, 8] was “M”. The “intensity of coloration” value [1, 8] was 2, the color [1, 9] was “M” and the “intensity of coloration” value [1, 9] was 2. The color [1, 10] was “M”, the “intensity of coloration” value [1, 10] was 2 and the color [1, 11] was “M”. The “intensity of coloration” value [1, 11] was 2, the color [1, 12] was “M” and the “intensity of coloration” value [1, 12] was 2. The color [1, 13] was “M”, the “intensity of coloration” value [1, 13] was 1 and the color [1, 14] was “M”. For the same compound, the “intensity of coloration” value [1, 14] was 2, the color [1, 15] was “M” and the “intensity of coloration” value [1, 15] was 0.5. The color [1, 16] was “M”, the “intensity of coloration” value [1, 16] was 1.5 and the color [1, 17] was “M”. The color [1, 18] was “M”, the “intensity of coloration” value [1, 18] was 1 and the color [1, 19] was “M”. For the same compound, the “intensity of coloration” value [1, 19] was 3, the color [1, 20] was “M” and the “intensity of coloration” value [1, 20] was 3. The color [1, 21] was “M”, the “intensity of coloration” value [1, 21] was 3 and the color [1, 22] was “M”. The “intensity of coloration” value [1, 22] was 3, the color [1, 23] was “M” and the “intensity of coloration” value [1, 23] was 3. For the same compound, the color [1, 24] was “M”, the “intensity of coloration” value [1, 24] was 3 and the color [1, 25] was “M”. For the same compound, the “intensity of coloration” value [1, 25] was 2, the color [1, 26] was “M” and the “intensity of coloration” value [1, 26] was 3. For the same compound, the color [1, 27] was “M”, the “intensity of coloration” value [1, 27] was 1 and the color [1, 28] was “M”. For the same compound, the “intensity of coloration” value [1, 28] was 2.5, the color [1, 29] was “M” and the “intensity of coloration” value [1, 29] was 0.5. The color [1, 30] was “M”, the “intensity of coloration” value [1, 30] was 2.5 and the color [2, 7] was “M”. The “intensity of coloration” value [2, 7] was 1.5, the color [2, 8] was “M” and the “intensity of coloration” value [2, 8] was 1.5. The color [2, 9] was “M”, the “intensity of coloration” value [2, 9] was 1.5 and the color [2, 10] was “M”. For the same compound, the “intensity of coloration” value [2, 10] was 1.5, the color [2, 11] was “M” and the “intensity of coloration” value [2, 11] was 1.5. For the same compound, the color [2, 12] was “M”, the “intensity of coloration” value [2, 12] was 1.5 and the color [2, 13] was “M”. The “intensity of coloration” value [2, 13] was 0.5, the color [2, 14] was “M” and the “intensity of coloration” value [2, 14] was 1.5. For the same compound, the color [2, 15] was “M”, the color [2, 16] was “M” and the “intensity of coloration” value [2, 16] was 1. For the same compound, the color [2, 17] was “M”, the color [2, 18] was “M” and the “intensity of coloration” value [2, 18] was 1. The color [2, 19] was “M”, the “intensity of coloration” value [2, 19] was 2.5 and the color [2, 20] was “M”. The “intensity of coloration” value [2, 20] was 2.5, the color [2, 21] was “M” and the “intensity of coloration” value [2, 21] was 2.5. The color [2, 22] was “M”, the “intensity of coloration” value [2, 22] was 2.5 and the color [2, 23] was “M”. The “intensity of coloration” value [2, 23] was 2.5, the color [2, 24] was “M” and the “intensity of coloration” value [2, 24] was 2.5. For the same compound, the color [2, 25] was “M”, the “intensity of coloration” value [2, 25] was 2 and the color [2, 26] was “M”. The “intensity of coloration” value [2, 26] was 2.5, the color [2, 27] was “M” and the “intensity of coloration” value [2, 27] was 0.5. For the same compound, the color [2, 28] was “M”, the “intensity of coloration” value [2, 28] was 2.5 and the color [2, 29] was “M”. The color [2, 30] was “M”, the “intensity of coloration” value [2, 30] was 2 and the color [3, 7] was “M”. For the same compound, the “intensity of coloration” value [3, 7] was 2, the color [3, 8] was “M” and the “intensity of coloration” value [3, 8] was 2. For the same compound, the color [3, 9] was “M”, the “intensity of coloration” value [3, 9] was 2 and the color [3, 10] was “M”. The “intensity of coloration” value [3, 10] was 2, the color [3, 11] was “M” and the “intensity of coloration” value [3, 11] was 2. The color [3, 12] was “M”, the “intensity of coloration” value [3, 12] was 2 and the color [3, 13] was “M”. The “intensity of coloration” value [3, 13] was 1, the color [3, 14] was “M” and the “intensity of coloration” value [3, 14] was 2. For the same compound, the color [3, 15] was “M”, the “intensity of coloration” value [3, 15] was 0.5 and the color [3, 16] was “M”. For the same compound, the “intensity of coloration” value [3, 16] was 1, the color [3, 17] was “M” and the color [3, 18] was “M”. The “intensity of coloration” value [3, 18] was 1, the color [3, 19] was “M” and the “intensity of coloration” value [3, 19] was 3. The color [3, 20] was “M”, the “intensity of coloration” value [3, 20] was 3 and the color [3, 21] was “M”. For the same compound, the “intensity of coloration” value [3, 21] was 3, the color [3, 22] was “M” and the “intensity of coloration” value [3, 22] was 3. For the same compound, the color [3, 23] was “M”, the “intensity of coloration” value [3, 23] was 3 and the color [3, 24] was “M”. For the same compound, the “intensity of coloration” value [3, 24] was 3, the color [3, 25] was “M” and the “intensity of coloration” value [3, 25] was 2. For the same compound, the color [3, 26] was “M”, the “intensity of coloration” value [3, 26] was 3 and the color [3, 27] was “M”. For the same compound, the “intensity of coloration” value [3, 27] was 0.5, the color [3, 28] was “M” and the “intensity of coloration” value [3, 28] was 2. For the same compound, the color [3, 29] was “M”, the color [3, 30] was “M” and the “intensity of coloration” value [3, 30] was 2. For the same compound, the color [4, 7] was “—”, the color [4, 8] was “—” and the color [4, 9] was “—”. For the same compound, the color [4, 10] was “—”, the color [4, 11] was “—” and the color [4, 12] was “—”. The color [4, 13] was “—”, the color [4, 14] was “—” and the color [4, 15] was “—”. The color [4, 16] was “—”, the color [4, 17] was “—” and the color [4, 18] was “—”. For the same compound, the color [4, 19] was “—”, the color [4, 20] was “—” and the color [4, 21] was “—”. For the same compound, the color [4, 22] was “—”, the color [4, 23] was “—” and the color [4, 24] was “—”. For the same compound, the color [4, 25] was “—”, the color [4, 26] was “—” and the color [4, 27] was “—”. For the same compound, the color [4, 28] was “—”, the color [4, 29] was “—” and the color [4, 30] was “—”. For the same compound, the color [5, 7] was “—”, the color [5, 8] was “—” and the color [5, 9] was “—”. The color [5, 10] was “—”, the color [5, 11] was “—” and the color [5, 12] was “—”. For the same compound, the color [5, 13] was “—”, the color [5, 14] was “—” and the color [5, 15] was “—”. For the same compound, the color [5, 16] was “—”, the color [5, 17] was “—” and the color [5, 18] was “—”. The color [5, 19] was “—”, the color [5, 20] was “—” and the color [5, 21] was “—”. For the same compound, the color [5, 22] was “—”, the color [5, 23] was “—” and the color [5, 24] was “—”. For the same compound, the color [5, 25] was “—”, the color [5, 26] was “—” and the color [5, 27] was “—”. The color [5, 28] was “—”, the color [5, 29] was “—” and the color [5, 30] was “—”.
For “1,2-dihydroxyanthraquinone octanoate [2-alizarin octanoate]”, the “Appearance of the stock solution” value ([6]; 40% DMF) was “total”, the “Appearance of the stock solution” value ([6]; 40% DMSO) was “precipitate” and the “Appearance of the stock solution” value ([6]; 40% methanol) was “precipitate”. The “Appearance of the stock solution” value ([6]; 40% methoxyethanol) was “total”.
